Reference: BigSolDB 2.1

O=c1cc(-c2ccccc2)oc2cc(O)cc(O)c12
solubility (mole fraction)
Settings | 293.15 K | 298.15 K | 303.15 K | 308.15 K | 313.15 K | 318.15 K | 323.15 K
in ethanol | 0.00689 | 0.00749 | 0.0078 | 0.00928 | 0.0108 | 0.0121 | 0.0137
in water | 1.26e-05 | 1.86e-05 | 2.38e-05 | 3.53e-05 | 4.61e-05 | 6.5e-05 | 0.0001
